Test results reported in US9598686B2, “Use of Galerina marginata genes and proteins for peptide production” (Board of Trustees of Michigan State University, priority 2007, dated 2017).
*1 amine or outer side, *2 acyl side, *3 side chain or, on linkers, in order; H or OH if unused. Where a SMILES comes first, the peptide text is derived from it. Bridges are numbered along the chain shown (N, C = ends). [ ]: non-standard residue; d: D form. Trp(2-SH) = 2-mercapto-L-tryptophan, O=C([C@H](Cc1c(S[*:3])[nH]c2ccccc12)N[*:1])[*:2]; Trp(2-yl) = O=C([C@H](Cc1c([*:3])[nH]c2ccccc12)N[*:1])[*:2]; Leu(4R-OH,5-OH) = C[C@](O)(CO)C[C@H](N)C(=O)O; Leu(4,5-diOH) = 4,5-dihydroxy-L-leucine; cisHyp = O=C(O)[C@@H]1C[C@H](O)CN1

Columns and labels:
[1] = test system: POPB (prolyl oligopeptidase) purified from Conocybe albipes; test: cleavage of synthetic model toxin propeptides by purified POP, reverse phase HPLC and MS; format: biochemical; conditions: products confirmed by MS/MS
Procedure: The responsible enzyme was purified. Specifically, Conocybe mushrooms were freeze-dried, ground in buffer, and the extracts concentrated by ammonium sulfate precipitation. After desalting, the proteins were fractionated by anion exchange high-performance liquid chromatography (or high pressure liquid chromatography, HPLC).
Fractions containing peptides were assayed using Z-Gly-Pro-pNA and the model phallacidin substrate. Reaction products were separated by reverse phase HPLC (FIG. 20). In some experiments the HPLC eluant was analyzed by MS, while in other cases the peaks of UV absorption were collected and analyzed by MS in the inventors lab and the central LC/MS facility, in particular for long HPLC run times. […] PepSeq within the MassLynx program was used to determine peptide sequences. The peptides eluting from HPLC were monitored at 280 nm.
Confirmation of reaction product structures was accomplished by MS/MS.

human = conditions: cited from earlier work
[2] = parenteral: inhalation, intravenous or intramuscular injection; cited from earlier work
[3] = oral; cited from earlier work

Compound	cleavage by purified POP at flanking Pro residues [1]	toxicity when administered parenterally [2]	absorption by the mammalian digestive tract [3]	other results
MSDINATRLPAWLATCPCAGDD [synthetic phalloidin peptide, synthesized model peptide mimicking the phalloidin proprotein]	cuts	–	–	–
cyclic (L-asparaginyl-4-hydroxy-L-prolyl-(R)-4,5-dihydroxy-L-isoleucyl-6-hydroxy-2-mercapto-L-tryptophylglycyl-L-isoleucylglycyl-L-cysteinyl), cyclic (4-8)-sulfide, (R)—S-oxide [α-amanitin]	–	–	–	fatal dose (human; fatal for at least 50% of people weighing approximately 100-110 kgs, amount one mature mushroom can contain): 10 to 12 mg; human LD50 (human; human): approximately 0.1 mg/kg
C[C@@H]1NC(=O)[C@H](C[C@@](C)(O)CO)NC(=O)[C@@H]2Cc3c([nH]c4ccccc34)SC[C@H](NC(=O)[C@@H]([C@H](C)O)NC1=O)C(=O)N1C[C@@H](O)C[C@H]1C(=O)N[C@@H](C)C(=O)N2 [phalloidin, cyclic (L-alanyl-D-threonyl-L-cysteinyl-cis-4-hydroxy-L-prolyl-L-alanyl-2-mercapto-L-tryptophyl-4,5-dihydroxy-L-leucyl), cyclic (3,6)-sulfide] (cyclo(A[dT]C[cisHyp]A[Trp(2-yl)][Leu(4R-OH,5-OH)]); thioether 3-6)	–	poisonous	do not appear to be absorbed	–
cyclic (L-alanyl-2-mercapto-L-tryptophyl-4,5-dihydroxy-L-leucyl-L-valyl-er-ythro-3-hydroxy-D-alpha-aspartyl-cysteinyl-cis-4-hydroxy-L-prolyl)cyclic (2-6)-sulfide (cyclo(A[Trp(2-SH)][Leu(4,5-diOH)]VDC[cisHyp]); thioether 2-6; not fully specified (residue 5)) [phallacidin]	–	poisonous	do not appear to be absorbed	–
ATRLPIWGIGCNPCVGDD [synthetic amanitin precursor]	cut	–	–	–
ATRLPAWLVDCPCVGDD [synthetic phallacidin precursor]	cut	–	–	–
